Reference: patent US20220402917A1, “COMPOUND AS SMALL MOLECULE INHIBITOR PD-1/PD-L1 AND APPLICATION THEREOF” (MEDSHINE DISCOVERY INC., priority 2019, published 2022)

Legend:
PD1/PD-L1 [1] = target: T1, PD1/PD-L1 (Homo sapiens, UniProt Q9NZQ7); test: NFAT activity test (TCR Activitor/PD-L1 CHO cells with PD-1/NFAT Reporter-Jurkat cells); format: cell-based; set-up: host or cells: TCR Activitor/PD-L1 CHO cells; PD-1/NFAT Reporter-Jurkat cells; details: TCR Activitor/PD-L1 CHO cells + PD-1/NFAT Reporter-Jurkat cells, 5 hours, luciferase; for IC50: read-out: IC50, inhibitory activity on PD1/PD-L1 binding (NFAT activity test)
From the text: Experimental Example 3: NFAT Activity Test
The engineered T cell expresses PD-1 molecules and T cell receptor (TCR) on the surface, which can activate the NFAT signaling pathway of T cells after co-culturing with engineered antigen presenting cells (APCs). Expression of PD-L1 molecules on APCs can effectively attenuate the NFAT signaling pathway in T cells. PD-L1 inhibitors can be used effectively block the PD-1/PD-L1 regulatory mechanism, thereby reversing the weakened NFAT signaling pathway. After being pretreated with APC, the small molecule is co-cultured with T cells, then the expression of luciferase was detected to indirectly reflect the activation of the NFAT pathway in T cells.
The PD1/PD-L1 NFAT detection kit was purchased from BPS Biosciences. Birght-Glo reagent was purchased from Promega. Nivo multi-label analyzer (PerkinElmer).
The TCR Activitor/PD-L1 CHO cells with a growth confluence of 80% were plated into the plate at 35,000 cells per well and placed in a 37° C. cell culture incubator overnight; the compounds to be tested were diluted 5-fold to the 8th concentration, from 20 μM to 0.25 nM, and the DMSO concentration was 2%, a double-well experiment was set up. The TCR Activitor/PD-L1 CHO cell supernatant was discarded, 50 μl of compound working solution was added to each well, incubated at 37° C. for 30 minutes; after the incubation was completed, 50 μL of PD-1/NFAT Reporter-Jurkat cell suspension with a concentration of 4*10^5 cells/mL was added to each well, incubated at 37° C. for 5 hours. After the incubation was completed, 100 μL Bright-Glo was added to each well, and after mixing, the chemiluminescence signal was detected by a Nivo multi-label analyzer.
(§1) Using the equation (sample−Min)/(Max−Min)×100% to convert the raw data into inhibition rate, and the IC50 value can be obtained by curve fitting with four parameters (obtained from log(inhibitor) vs. response—Variable slope mode in GraphPad Prism). Table 3 provides the inhibitory activity of the compounds of the examples of the present disclosure on PD1/PD-L1 binding.
Target sequence in this assay (Q9NZQ7 19-290): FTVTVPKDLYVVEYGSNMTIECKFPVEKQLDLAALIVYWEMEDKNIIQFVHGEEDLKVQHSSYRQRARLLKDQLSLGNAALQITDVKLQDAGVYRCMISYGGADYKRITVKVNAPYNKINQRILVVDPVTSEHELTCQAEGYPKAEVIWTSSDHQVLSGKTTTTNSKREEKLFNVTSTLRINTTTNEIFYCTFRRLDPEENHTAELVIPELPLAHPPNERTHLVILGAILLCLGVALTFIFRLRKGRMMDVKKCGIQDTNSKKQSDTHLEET

PD1/PD-L1 [2] = target: T1, PD1/PD-L1; test: PD-1/PD-L1 homogeneous time-resolved fluorescence (HTRF) binding experiment; set-up: purchased BPS Biosciences; details: HTRF (TR-FRET), PD-L1-biotin, PD1-Eu
From the text: Experimental Example 1: PD-1/PD-L1 Homogenouse Time-Resolved Fluorescence (HTRF) Binding Experiment
When the PD-1 molecule as the donor is very close to the PD-L1 molecule as the acceptor, the donor molecule will transfer the energy to the receptor molecule, which in turn causes the receptor molecule to emit fluorescence. The ability of small molecules to prevent the binding of PD-L1 to PD-1 can be tested by detecting the intensity of fluorescence. A homogeneous time-resolved fluorescence (HTRF) binding experiment is used to detect the ability of the compounds of the present disclosure to inhibit the binding of PD-1/PD-L1.
PD1/PD-L1 TR-FRET detection kit was purchased from BPS Biosciences. Nivo multi-label analyzer (PerkinElmer).
PD1-Eu, Dye-labeled acceptor, PD-L1-biotin and compounds to be tested were diluted with the buffer in the kit. The compounds to be tested were subjected to 5-fold dilution to eight concentration gradients with a row gun. That is, from 40 μM to 0.5 nM, the DMSO concentration was 4%, and a double-well experiment was set up. 5 μL of inhibitor with each concentration gradient were added to the microwell plate, and 5 μL buffer containing 4% DMSO and 5 μL PD-L1-biotin (PD-L1-biotin) (60 nM) were added into well with the maximum signal (Max) and the well with the minimum signal (Min), only 5 μL of buffer was added to the well with the minimum signal (Min), and the incubation was conducted at 25° C. for 20 minutes. After the incubation was completed, 5 μL of diluted PD1-Eu (10 nM) and […] were added to each well. The reaction system was placed at 25° C. for 90 minutes. The TR-FRET signal was read by a multi-label analyzer after the reaction was completed.
as §1, with “1” for “3”, “binding” for “binding.”
Target sequence in this assay (Q9NZQ7 19-239 limits assumed): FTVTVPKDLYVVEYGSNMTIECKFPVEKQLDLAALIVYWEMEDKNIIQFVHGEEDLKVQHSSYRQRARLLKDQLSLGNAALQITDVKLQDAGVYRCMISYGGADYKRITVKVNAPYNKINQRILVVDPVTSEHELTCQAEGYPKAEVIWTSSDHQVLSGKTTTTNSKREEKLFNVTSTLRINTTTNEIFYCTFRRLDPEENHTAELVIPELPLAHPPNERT

[3] = target: T2, PD-L1 in MDA-MR-231 cells (Homo sapiens, UniProt Q9NZQ7); test: Effect on expression level of PD-L1 in MDA-MR-231 cells (FACS); format: cell-based; details: 24 hours incubation, FACS detection of cell surface PD-L1
T2 construct: endogenous in cells; host or cells: MDA-MB-231
T2 sequence (Q9NZQ7 19-290): as the sequence (Q9NZQ7 19-290) above
Experimental: Experimental Example 2: Using MDA-MR-231 Cells to Detect the Effect of Compounds on the Expression Level of PD-L1
The use of a triple-negative breast cancer cell line (MDA-MB-231) is an indirect method to assess PD-L1 endocytosis. PD-L1 molecules on the cell surface can be degraded by lysosomal and proteasome pathways, and small molecule inhibitors are added to induce PD-L1 endocytosis. After co-incubating small molecules with MDA-MB-231 cells for 24 hours, flow cytometry (Fluorescence-activated Cell Sorting, FACS) is used to detect the content of PD-L1 on the cell surface, which can indirectly reflect the effect of small molecule-induced PD-L1 endocytosis. Flow cytometry (FACS) is used to detect the effect of the compounds of the present disclosure on the expression level of PD-L1 in MDA-MR-231 cells.
Phosphate buffer (DPBS), 1640 medium, penicillin-streptomycin, fetal bovine serum, non-essential amino acids, 2-hydroxy-1-ethanethiol (2-ME), human interferon γ, LIVE/DEAD staining solution, staining buffer, fixation buffer, 0.25% trypsin, EDTA, anti-human PD-L1, anti-human PD-L1 isotype.
1640 complete medium preparation: 50 mL of fetal bovine serum, 5 mL of non-essential amino acids, 5 mL of penicillin-streptomycin and 0.5 mL of 2-hydroxy-1-ethanethiol were added to 439.5 mL of 1640 medium, and evenly mixed.
10 mM EDTA preparation: 1 mL of 0.5M EDTA was added to 49 mL of DPBS, and evenly mixed.
1) MDA-MB-231 cell counting and plating: The culture flask was taken out, the medium was removed and the culture flask was rinsed once with DPBS. After the culture flask was rinsed, 3 mL of 0.25% trypsin was added to the culture flask and the culture flask was placed in a 37° C. incubator for 1.5 min. The culture flask was taken out, 9 mL of 1640 complete medium was added to stop the reaction, the cells was transferred to a 50 mL centrifuge tube, and centrifuged at 1000 rpm for 5 min at 37° C. An appropriate volume of medium was added to re-suspend the cells according to the number of cells, and the number of cells was counted with a cell counter. The cell concentration was adjusted to 5×10^5 cells/mL with medium. Planking: A volume of 200 μL of cell suspension was added to each well of a 96-well plate, ensure that the number of cells in each well was 1×10^5. The cells were incubated overnight in an incubator. 2) Drug incubation: 100-fold dilution of compounds were prepared, and the drug was subjected to a 5-fold gradient dilution. 2 μL of each 100-fold dilution of compounds were added to each well. The cells were incubated in an incubator at 37° C. for 24 hours. 3) PD-L1 cell staining and FACS detection: the culture plate was taken out and the supernatant medium was discarded. The cells were washed once with 200 μL 1×PBS. 100 μL of EDTA (final concentration of 10 mM) was added to the cell suspension, and the cell suspension was treated at 37° C. for 10 min. Then after the cell suspension was centrifuged at 1500 rpm for 5 min, the cell suspension was washed once with 200 μL of staining solution. Staining: anti-human PD-L1 (2 μL per well) and LIVE/DEAD staining solution (1:1000) were diluted in staining solution, 50 μL of the staining solution was added to each well, and the staining was conducted at 4° C. for 30 min. Then the solution was washed twice with 200 μL of staining solution. Fixation: 100 μL of fixing solution was added to each well, the fixation was conducted at 4° C. for 15 min. The solution was then washed twice with 200 μL of staining solution, and 150 μL of solution was added to re-suspend the cells, followed by FACS detection.
Table 2 provides the effects of the compounds of the examples of the present disclosure on the expression level of PD-L1 in MDA-MR-231 cells.

[4] = Pharmacokinetic test in C57BL/6 mice; format: in vivo; details: mouse, plasma, male C57BL/6 mice
Experimental: Experimental Example 4: Pharmacokinetic Test
Experimental purpose: To study the pharmacokinetics of compounds in C57BL/6 mice.
Experimental materials: C57BL/6 mice (male, 8 weeks old, body weight 25 g-30 g)
Experimental operation: The pharmacokinetic characteristics of rodents after intravenous (IV) and oral (PO) administration of compounds were tested in standard protocols. In the experiment, the candidate compounds were formulated into 1 mg/mL clear solutions, and administered to mice via a single intravenous injection and oral administration. The vehicle of intravenous and oral administration was 5% DMSO/5% polyethylene glycol 15-hydroxystearate (Solutol)/90% aqueous solution. Four male C57BL/6 mice were used in the experiment, wherein two mice were administered intravenously at a dose of 1 mg/kg, and the plasma samples were collected 0.0833, 0.25, 0.5, 1, 2, 4, 6, 8 and 24 h after administration, the other two mice were given oral gavage at a dose of 10 mg/kg, and the plasma samples were collected 0.25, 0.5, 1, 2, 4, 6, 8, and 24 h after administration. Whole blood samples within 24 hours were collected, centrifuged at 3000 g for 15 minutes, and the supernatant was separated to obtain plasma samples. Acetonitrile solution containing internal standard was added thereto to precipitate proteins, the mixture was thoroughly mixed and centrifuged to obtain the supernatant for injection. The plasma concentration was quantified by LC-MS/MS analysis method, and the pharmacokinetic parameters were calculated, such as peak concentration (Cmax), clearance (CL), half-life (T1/2), […] (Vdss), area under the drug-time curve (AUC0-last), bioavailability (F) and so on.

| Structure (SMILES) | Maximum effect (induction fold) (PD1/PD-L1 [1]) | IC50 (PD1/PD-L1 [1]) | IC50 (PD1/PD-L1 [2]) | IC50 [3] | bioavailability ([4]; PO 10 mg/kg vs IV 1 mg/kg, read-out: Bioavailability F) | Cmax ([4]; IV 1 mg/kg, PO 10 mg/kg (route not given for Cmax), read-out: Peak concentration Cmax) | clearance ([4]; IV 1 mg/kg, read-out: Clearance CL) | half-life ([4]; IV 1 mg/kg, read-out: Half-life T1/2 (IV) (converted)) | Vd ([4]; IV 1 mg/kg, read-out: Tissue distribution Vdss) | AUC(0-t) ([4]; PO 10 mg/kg, read-out: Area under the drug-time curve AUC0-last PO) |
| --- | --- | --- | --- | --- | --- | --- | --- | --- | --- | --- |
| Cc1cc(C(=O)Nc2cccc(-c3cccc(NC(=O)c4ccc(CNCCO)cn4)c3C)c2C)nc2c1CCN(CCO)C2 [Compound 1] | 3.71 induction fold | 34.9 nM | 2.08 nM | 62.5 nM |  |  |  |  |  |  |
| Cc1cc(C(=O)Nc2cccc(-c3cccc(NC(=O)c4ccc(CNCCO)cn4)c3C)c2C)nc2c1CN(CCO)CC2 [Compound 2] |  |  | 2.1 nM |  |  |  |  |  |  |  |
| Cc1cc(C(=O)Nc2cccc(-c3cccc(NC(=O)c4ccc(CNCCO)cn4)c3C)c2C#N)nc2c1CCN(CCO)C2 [Compound 7] | 3.38 induction fold | 38.4 nM | 3.22 nM |  |  |  |  |  |  |  |
| Cc1c(NC(=O)c2ccc(CNCCO)cn2)cccc1-c1cccc(NC(=O)c2cc(NCCO)c3c(n2)CN(CCO)CC3)c1Cl [Compound 18] | 3.77 induction fold | 79.7 nM | 3.16 nM | 70.6 nM |  |  |  |  |  |  |
| COc1cc(C(=O)Nc2cccc(-c3cccc(-c4cnc(CN5CC(C)(O)C5)c(OC)n4)c3Cl)c2Cl)nc2c1CCN(CCO)C2 [Compound 42] | 4.39 induction fold | 23.4 nM |  | 9.48 nM | 61.6% | 260 nM | 36.6 mL/min/kg | 16.4 h | 40.8 L/kg | 3.1 µM·h |

The remaining molecules from weak to strong by IC50 (PD1/PD-L1 [1]), led by results:

| Maximum effect (induction fold) (PD1/PD-L1 [1]) | IC50 (PD1/PD-L1 [1]) | IC50 (PD1/PD-L1 [2]) | IC50 [3] | bioavailability ([4]; PO 10 mg/kg vs IV 1 mg/kg, read-out: Bioavailability F) | Cmax ([4]; IV 1 mg/kg, PO 10 mg/kg (route not given for Cmax), read-out: Peak concentration Cmax) | clearance ([4]; IV 1 mg/kg, read-out: Clearance CL) | half-life ([4]; IV 1 mg/kg, read-out: Half-life T1/2 (IV) (converted)) | Vd ([4]; IV 1 mg/kg, read-out: Tissue distribution Vdss) | AUC(0-t) ([4]; PO 10 mg/kg, read-out: Area under the drug-time curve AUC0-last PO) | Structure (SMILES) |
| --- | --- | --- | --- | --- | --- | --- | --- | --- | --- | --- |
| 3.81 induction fold | 42.5 nM | 4.54 nM | 25.1 nM |  |  |  |  |  |  | Cc1cc(C(=O)Nc2cccc(-c3cccc(NC(=O)c4ccc(CNCCO)cn4)c3C)c2Cl)nc2c1CCN(C(CO)CO)C2 [Compound 11] |
| 3.80 induction fold | 33.9 nM | 8.86 nM | 29.3 nM |  |  |  |  |  |  | Cc1cc(C(=O)Nc2cccc(-c3cccc(NC(=O)c4ccc(CNCCO)cn4)c3C)c2Cl)nc2c1CCN(C1CCC(O)CC1)C2 (stereo not shown) [Compound 15] |
| 4.23 induction fold | 25.1 nM | 1.49 nM | 0.75 nM |  |  |  |  |  |  | Cc1cc(C(=O)Nc2cccc(-c3cccc(NC(=O)c4ccc(CNCCO)cn4)c3C)c2Cl)nc2c1CCN(CC(=O)O)C2 [Compound 17] |
| 3.43 induction fold | 16.9 nM | 3.58 nM |  |  |  |  |  |  |  | Cc1cc(C(=O)Nc2cccc(-c3cccc(NC(=O)c4ccc(CNCCO)cn4)c3C)c2Cl)nc2c1CCN(C1CCC(C)(C(=O)O)CC1)C2 (stereo not shown) [Compound 20] |
| 3.54 induction fold | 14.3 nM | 4.65 nM | 93.2 nM |  |  |  |  |  |  | Cc1cc(C(=O)Nc2cccc(-c3cccc(NC(=O)c4ccc(CNCCO)cn4)c3Cl)c2C)nc2c1CCN(CCO)C2 [Compound 6] |
